Key:
Human HDAC6 = Human HDAC6 (Homo sapiens (Human), UniProt Q9UBN7); experiment: HDAC6 enzymatic activity assay (Caliper endpoint or fluorogenic format); format: biochemical; conditions: for IC50: in vitro enzymatic; for Selectivity (6 v 8) (fold): ratio of HDAC8 IC50/HDAC6 IC50
Human HDAC8 = Human HDAC8 (Homo sapiens (Human), UniProt Q9BY41); experiment: Caliper endpoint assay for HDAC8 enzymatic activity; format: biochemical; conditions: in vitro enzymatic
Chain of Human HDAC8 (Q9BY41 whole entry): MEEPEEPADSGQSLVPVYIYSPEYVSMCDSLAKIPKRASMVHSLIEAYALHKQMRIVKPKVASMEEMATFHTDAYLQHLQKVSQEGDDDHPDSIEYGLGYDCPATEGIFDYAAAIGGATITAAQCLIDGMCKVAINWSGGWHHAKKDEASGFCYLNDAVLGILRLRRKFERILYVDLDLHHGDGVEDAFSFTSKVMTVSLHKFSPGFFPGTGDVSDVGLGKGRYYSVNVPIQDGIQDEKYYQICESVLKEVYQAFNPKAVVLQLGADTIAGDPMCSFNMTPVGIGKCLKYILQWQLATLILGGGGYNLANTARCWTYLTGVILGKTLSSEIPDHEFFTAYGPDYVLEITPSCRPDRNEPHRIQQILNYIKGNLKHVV

Chain of Human HDAC6 (Q9UBN7 whole entry): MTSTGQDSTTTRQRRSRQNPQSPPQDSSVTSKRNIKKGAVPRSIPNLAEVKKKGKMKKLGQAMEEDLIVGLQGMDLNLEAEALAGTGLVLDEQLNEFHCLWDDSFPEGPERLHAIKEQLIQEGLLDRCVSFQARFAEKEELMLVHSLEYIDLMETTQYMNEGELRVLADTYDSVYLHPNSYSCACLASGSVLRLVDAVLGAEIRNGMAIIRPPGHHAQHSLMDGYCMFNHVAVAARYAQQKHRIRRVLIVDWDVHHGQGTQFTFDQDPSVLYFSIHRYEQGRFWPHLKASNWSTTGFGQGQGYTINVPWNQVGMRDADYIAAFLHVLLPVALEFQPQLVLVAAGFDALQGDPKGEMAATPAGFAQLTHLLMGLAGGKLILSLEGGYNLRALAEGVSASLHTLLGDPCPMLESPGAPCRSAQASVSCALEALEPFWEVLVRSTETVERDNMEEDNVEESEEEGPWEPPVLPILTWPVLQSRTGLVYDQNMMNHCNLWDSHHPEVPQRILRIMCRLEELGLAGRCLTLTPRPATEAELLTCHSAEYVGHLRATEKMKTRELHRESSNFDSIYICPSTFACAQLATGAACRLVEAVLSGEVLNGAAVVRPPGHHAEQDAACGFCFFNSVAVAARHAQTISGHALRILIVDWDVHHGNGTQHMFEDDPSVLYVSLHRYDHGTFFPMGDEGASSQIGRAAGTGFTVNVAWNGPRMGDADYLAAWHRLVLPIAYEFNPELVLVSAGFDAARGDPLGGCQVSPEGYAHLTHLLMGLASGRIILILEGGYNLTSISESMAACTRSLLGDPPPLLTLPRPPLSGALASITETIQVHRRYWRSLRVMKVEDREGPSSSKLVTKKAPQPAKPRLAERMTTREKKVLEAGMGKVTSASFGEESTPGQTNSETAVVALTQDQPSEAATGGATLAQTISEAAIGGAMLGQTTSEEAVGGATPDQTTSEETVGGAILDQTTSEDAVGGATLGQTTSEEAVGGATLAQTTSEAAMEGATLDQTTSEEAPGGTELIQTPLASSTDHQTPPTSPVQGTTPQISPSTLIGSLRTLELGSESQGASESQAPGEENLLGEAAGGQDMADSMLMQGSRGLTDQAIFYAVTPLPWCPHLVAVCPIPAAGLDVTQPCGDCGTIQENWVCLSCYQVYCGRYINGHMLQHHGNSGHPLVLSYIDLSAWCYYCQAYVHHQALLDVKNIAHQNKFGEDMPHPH

Compound	IC50 (Human HDAC6) [nM]	Selectivity (6 v 8) (fold) (Human HDAC6)	IC50 (Human HDAC8) [nM]
FC(F)c1nnc(-c2ccc(COc3cnccn3)nc2)o1 [Compound 68]	100 to 1000	V (V: >1000)	> 100000
Fc1ccc(OC(F)(F)c2ccc(-c3nnc(C(F)F)o3)cn2)cc1 [Compound 15, 2-(6-(difluoro(4-fluorophenoxy)methyl)pyridin-3-yl)-5-(difluoromethyl)-1,3,4-oxadiazole]	100 to 1000	V (V: >1000)	> 100000
Fc1cnc(OCc2ccc(-c3nnc(C(F)F)o3)cn2)nc1 [Compound 106]	100 to 1000	V (V: >1000)	> 100000
Cc1cnccc1OCc1ccc(-c2nnc(C(F)F)o2)cn1 [Compound 75]	1 to 100	IV (IV: >100-1000)	10000 to 100000
FC(F)c1nnc(-c2ccc(COc3cccc(C(F)(F)F)n3)nc2)o1 [Compound 92]	1 to 100	V (V: >1000)	> 100000
N#Cc1c(F)cccc1OCc1ccc(-c2nnc(C(F)F)o2)cn1 [Compound 29]	1 to 100	IV (IV: >100-1000)	10000 to 100000
FC(F)c1nnc(-c2ccc(C(F)(F)Oc3cccc4cccnc34)nc2)o1 [Compound 13, 2-(6-(difluoro(quinolin-8-yloxy)methyl)pyridin-3-yl)-5-(difluoromethyl)-1,3,4-oxadiazole]	1 to 100	V (V: >1000)	> 100000
FC(F)c1nnc(-c2ccc(COc3cccc4nccnc34)nc2)o1 [Compound 55]	1 to 100	V (V: >1000)	> 100000
FC(F)c1nnc(-c2ccc(COc3cccc4cccnc34)nc2)o1 [Compound 10, 2-(difluoromethyl)-5-(6-((quinolin-8-yloxy)methyl)pyridin-3-yl)-1,3,4-oxadiazole]	1 to 100	V (V: >1000)	> 100000
Cc1ccc(OCc2ccc(-c3nnc(C(F)F)o3)cn2)cn1 [Compound 70]	100 to 1000	V (V: >1000)	> 100000

Other lines, results leading:

IC50 (Human HDAC6) [nM]	Selectivity (6 v 8) (fold) (Human HDAC6)	IC50 (Human HDAC8) [nM]	Compound
1 to 100	V (V: >1000)	10000 to 100000	FC(F)c1nnc(-c2ccc(COc3ccc4ncccc4c3)nc2)o1 [Compound 62]
1 to 100	IV (IV: >100-1000)	10000 to 100000	Cn1cnc2cc(OCc3ccc(-c4nnc(C(F)F)o4)cn3)ccc21 [Compound 57]
1 to 100	V (V: >1000)	10000 to 100000	FC(F)c1nnc(-c2ccc(COc3cncc4ccccc34)nc2)o1 [Compound 88]
1 to 100	V (V: >1000)	> 100000	C#Cc1cccc(OCc2ccc(-c3nnc(C(F)F)o3)cn2)c1 [Compound 39]
1 to 100	V (V: >1000)	> 100000	Fc1cncc(OCc2ccc(-c3nnc(C(F)F)o3)cn2)c1 [Compound 19, 2-(Difluoromethyl)-5-(6-(((5-fluoropyridin-3-yl)oxy)methyl)pyridin-3-yl)-1,3,4-oxadiazole]
1 to 100	V (V: >1000)	> 100000	Cc1cc(OCc2ccc(-c3nnc(C(F)F)o3)cn2)ccn1 [Compound 74]
1 to 100	V (V: >1000)	> 100000	N#Cc1cccc(F)c1OCc1ccc(-c2nnc(C(F)F)o2)cn1 [Compound 48]
1 to 100	V (V: >1000)	> 100000	FC(F)c1nnc(-c2ccc(COc3cccn4ccnc34)nc2)o1 [Compound 82]
1 to 100	IV (IV: >100-1000)	10000 to 100000	Cc1nc2cc(OCc3ccc(-c4nnc(C(F)F)o4)cn3)ccc2o1 [Compound 61]
1 to 100	III (III: >10-100)	1000 to 10000	Cc1nc(Cl)cc(OCc2ccc(-c3nnc(C(F)F)o3)cn2)n1 [Compound 80]

— US20230322747A1, “OXADIAZOLE HDAC6 INHIBITORS AND USES THEREOF” (Eikonizo Therapeutics, Inc., priority 2022, published 2023)
